Laboratory results as given in patent US12390473B2, “Methods of treating tyrosine kinase inhibitor-induced diarrhea” (THE REGENTS OF THE UNIVERSITY OF CALIFORNIA, priority 2019, dated 2025).
pEC50: −log10 of the molar value.

Columns and labels:
[1] = test system: T84 human colonic epithelial cells; assay: Short-circuit current in T84 cell monolayers, identical apical and basolateral solutions; type: cell-based; conditions: for effect on carbachol and forskolin induced current responses, without and with afatinib pretreatment: 30 μM clotrimazole, 10 μM senicapoc, 30 min prior to 100 μM carbachol then 10 μM forskolin; for effect of higher concentrations on the small residual current: data not shown; for short-circuit current, TKI alone: 40 μM lapatinib, 20 μM gefitinib, before carbachol; for short-circuit current, TKI alone / effect on residual afatinib-induced carbachol response in BAPTA-treated cells: 20 μM afatinib; for effect on residual afatinib-induced carbachol response in BAPTA-treated cells: 10 μM inhibitor
Description: T84 cells (ATCC CCL-248) are cultured in a 1:1 mixture of DMEM/Ham's F-12 medium supplemented with 10% FBS, 100 U/mL penicillin and 100 μg/mL streptomycin. Cells are grown on Snapwell inserts (Costar Corning, Horseheads, NY) at 37° C. in 5% CO2/95% air and used 7-10 days after plating.
T84 cells are mounted in Ussing chambers and bathed in symmetrical HCO3-buffered solution containing (in mM): 120 NaCl, 5 KCl, 1 MgCl2, 1 CaCl2, 10 D-glucose, 5 HEPES and 25 NaHCO3 (pH 7.4). The solutions are aerated with 95% O2/5% CO2 and maintained at 37° C. For measurement of basolateral K^+ conductance, a mucosal-to-serosal K^+ gradient is established using solutions containing K^+ as the major charge-carrying ion. The apical solution contained (in mM): 142.5 K-gluconate, 1.25 CaCl2, 0.40 MgSO4, 0.43 KH2PO4, 0.35 Na2HPO4, 10 HEPES, 5.6 D-glucose, pH 7.4. […] For measurement of apical Cl^− conductance, a basolateral to apical Cl^− gradient is applied. The basolateral solution contained (in mM): 120 NaCl, 1 MgCl2, 1 CaCl2, 10 D-glucose, 5 HEPES and 25 NaHCO3 (pH 7.4). In the apical solution 120 mM NaCl is replaced by 5 mM NaCl and 115 mM Na-gluconate, and the basolateral membrane is permeabilized with 250 μg/ml amphotericin B (Pongkorpsakol P, Pathomthongtaweechai N, Srimanote P, Soodvilai S, Chatsudthipong V, and Muanprasat C. Inhibition of cAMP-activated intestinal chloride secretion by diclofenac: cellular mechanism and potential application in cholera. PLoS Negl Trop Dis. 2014; 8(9):e3119). Short-circuit current is measured using an EVC4000 multichannel voltage clamp (World Precision Instruments, Sarasota, FL). For intestinal short-circuit current measurement, CD1 mice are anesthetized with isoflurane. The ileum is removed, washed with ice-cold Krebs buffer, opened along the mesenteric border, and full-thickness layer is mounted in a micro-Ussing chamber (area 0.7 cm2, World Precision Instruments, Sarasota, FL). Hemichambers are filled with oxygenated Krebs-bicarbonate solution.
The effect of ErbB TKIs lapatinib, gefitinib, and afatinib on Cl^− secretory responses in T84 human colonic epithelial cells is tested. Short-circuit current is measured in T84 cell monolayers with identical solutions bathing the apical and basolateral surfaces.

[2] = test system: cAMP-activated K+ channels; assay: Inhibition of forskolin-induced short-circuit current in T84 cells (FIG. 11B); type: cell-based, human; conditions: 10 μM forskolin
Description: (§1) T84 cells are mounted in Ussing chambers and bathed in symmetrical HCO3-buffered solution containing (in mM): 120 NaCl, 5 KCl, 1 MgCl2, 1 CaCl2, 10 D-glucose, 5 HEPES and 25 NaHCO3 (pH 7.4). The solutions are aerated with 95% O2/5% CO2 and maintained at 37° C. For measurement of basolateral K^+ conductance, a mucosal-to-serosal K^+ gradient is established using solutions containing K^+ as the major charge-carrying ion. The apical solution contained (in mM): 142.5 K-gluconate, 1.25 CaCl2, 0.40 MgSO4, 0.43 KH2PO4, 0.35 Na2HPO4, 10 HEPES, 5.6 D-glucose, pH 7.4. […] Short-circuit current is measured using an EVC4000 multichannel voltage clamp (World Precision Instruments, Sarasota, FL).

[3] = test system: Sprague-Dawley rats; assay: Rat model of afatinib diarrhea (stool water content, intestinal histology); type: in vivo; conditions: for reduction of the increased stool water content with afatinib: senicapoc 30 mg/kg oral twice daily; for inhibition of the increase in stool water content: days 3 and 4
Description: Female Sprague-Dawley rats (age 8-10 weeks) received oral afatinib (60 mg/kg oral) daily for 6 days. […] Rats are placed individually in metabolic cages and given access to water and food. Stool samples are collected for 5 hours. To measure stool water content, the stool samples are dried at 70° C. for 24 hours and water content is calculated as (wet weight−dry weight)/wet weight. Following initial dose-finding studies in mice and rats with several TKIs, using stool water content (from wet and dry weight measurement) as endpoint, a robust, short-term experimental animal model of afatinib diarrhea is established involving daily oral administration of 60 mg/kg afatinib in rats.

[4] = test system: basolateral membrane K+ channel(s); assay: Basolateral K+ conductance: short-circuit current in apically permeabilized T84 cells with K+ gradient; type: cell-based, human; conditions: apical membrane permeabilized
Description: as §1
To measure basolateral membrane K^+ conductance directly, short-circuit current is measured in T84 cells following permeabilization of the apical membrane with amphotericin B in Cl^− and Na^+ free solutions and an apical-to-basolateral K^+ gradient (FIG. 7A).

[5] = target: epithelial Ca2+-activated K+ channels (Homo sapiens, UniProt O15554); conditions: reported; cited from earlier work
Chain of epithelial Ca2+-activated K+ channels (O15554 whole entry): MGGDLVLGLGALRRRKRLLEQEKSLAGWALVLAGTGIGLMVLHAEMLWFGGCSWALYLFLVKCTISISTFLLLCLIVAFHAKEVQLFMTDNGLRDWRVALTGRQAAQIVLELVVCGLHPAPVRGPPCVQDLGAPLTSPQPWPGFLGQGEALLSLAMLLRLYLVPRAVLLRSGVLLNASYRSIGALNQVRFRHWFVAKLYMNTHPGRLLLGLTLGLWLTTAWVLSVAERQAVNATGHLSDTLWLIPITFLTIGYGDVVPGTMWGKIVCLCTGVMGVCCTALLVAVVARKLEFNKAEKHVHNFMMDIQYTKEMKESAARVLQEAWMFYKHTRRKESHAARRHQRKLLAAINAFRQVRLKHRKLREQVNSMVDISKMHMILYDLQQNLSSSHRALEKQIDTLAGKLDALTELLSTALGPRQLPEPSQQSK

[6] = target: T1, apical membrane CFTR Cl- channels (Homo sapiens, UniProt P13569); assay: Apical Cl- conductance: short-circuit current in basolaterally permeabilized T84 cells with Cl- gradient; type: cell-based; conditions: basolateral membrane permeabilized, 10 μM BPO-27
T1 construct: endogenous in cells; host or cells: T84 (ATCC CCL-248)
T1 sequence (P13569 whole entry): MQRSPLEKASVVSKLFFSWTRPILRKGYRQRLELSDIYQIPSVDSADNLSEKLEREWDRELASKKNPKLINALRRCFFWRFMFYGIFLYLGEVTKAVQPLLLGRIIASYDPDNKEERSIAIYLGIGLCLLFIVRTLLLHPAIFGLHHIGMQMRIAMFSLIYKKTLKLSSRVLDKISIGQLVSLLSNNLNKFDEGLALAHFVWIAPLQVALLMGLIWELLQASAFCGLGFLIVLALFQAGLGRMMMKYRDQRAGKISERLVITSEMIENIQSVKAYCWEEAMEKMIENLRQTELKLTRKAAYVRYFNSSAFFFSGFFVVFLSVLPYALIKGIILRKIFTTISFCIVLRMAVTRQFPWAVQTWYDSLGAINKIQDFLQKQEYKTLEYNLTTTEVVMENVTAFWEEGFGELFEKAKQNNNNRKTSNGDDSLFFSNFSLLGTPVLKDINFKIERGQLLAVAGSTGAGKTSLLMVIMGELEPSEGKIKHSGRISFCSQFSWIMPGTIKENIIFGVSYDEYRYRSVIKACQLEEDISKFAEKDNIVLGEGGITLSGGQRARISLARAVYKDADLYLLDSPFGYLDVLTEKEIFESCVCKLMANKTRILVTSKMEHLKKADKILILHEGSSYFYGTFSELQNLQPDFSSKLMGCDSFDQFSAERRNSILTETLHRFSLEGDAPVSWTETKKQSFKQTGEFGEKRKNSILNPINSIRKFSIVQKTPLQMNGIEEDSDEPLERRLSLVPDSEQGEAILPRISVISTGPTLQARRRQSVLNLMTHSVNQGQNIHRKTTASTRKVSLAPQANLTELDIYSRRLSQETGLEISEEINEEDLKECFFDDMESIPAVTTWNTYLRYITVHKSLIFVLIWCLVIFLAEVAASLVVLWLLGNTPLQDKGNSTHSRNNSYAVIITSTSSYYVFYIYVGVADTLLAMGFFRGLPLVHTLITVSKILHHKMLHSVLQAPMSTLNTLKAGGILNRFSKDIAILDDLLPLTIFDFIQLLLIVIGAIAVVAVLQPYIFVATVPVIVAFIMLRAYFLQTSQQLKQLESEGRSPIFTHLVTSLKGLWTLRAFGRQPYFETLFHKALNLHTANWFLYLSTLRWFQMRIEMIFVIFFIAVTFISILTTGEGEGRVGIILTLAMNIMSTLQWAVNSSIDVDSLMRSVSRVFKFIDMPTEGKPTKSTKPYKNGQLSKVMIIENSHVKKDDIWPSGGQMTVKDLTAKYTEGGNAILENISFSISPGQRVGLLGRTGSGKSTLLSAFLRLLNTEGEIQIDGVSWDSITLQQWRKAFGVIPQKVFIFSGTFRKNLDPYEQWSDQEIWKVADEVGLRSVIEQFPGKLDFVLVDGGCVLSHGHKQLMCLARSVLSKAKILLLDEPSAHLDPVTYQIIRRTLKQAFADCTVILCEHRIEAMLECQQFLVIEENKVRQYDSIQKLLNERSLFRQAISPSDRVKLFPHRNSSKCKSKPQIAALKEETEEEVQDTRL

[7] = afatinib-treated rats, BPO-27 10 mg/kg ip twice daily, clotrimazole 100 mg/kg oral in two divided doses
[8] = 30 μM BAPTA-AM, 100 μM carbachol

NC(=O)C(c1ccccc1)(c1ccc(F)cc1)c1ccc(F)cc1 [senicapoc]
effect on carbachol and forskolin induced current responses, without and with afatinib pretreatment [1]: largely prevents | effect of higher concentrations on the small residual current [1]: does not inhibit the residual current | IC50 for inhibition of cAMP-dependent basolateral K+ conductance [2]: low micromolar | reduction of the increased stool water content with afatinib [3, 7]: Significant, though lesser reduction

Clc1ccccc1C(c1ccccc1)(c1ccccc1)n1ccnc1 [clotrimazole]
effect on carbachol and forskolin induced current responses, without and with afatinib pretreatment [1]: largely prevents | effect of higher concentrations on the small residual current [1]: does not inhibit the residual current | effect on afatinib-amplified carbachol response (basolateral K+ conductance) ([4]; afatinib pretreatment, carbachol): largely blocked | inhibition of epithelial Ca2+-activated K+ channels in patch-clamp studies [5]: fully inhibit | reduction of the increased stool water content with afatinib [3, 7]: significantly reduced | inhibition of the increase in stool water content ([3]; afatinib-treated rats, clotrimazole 100 mg/kg oral in two divided doses): ~75%

CN(C)C/C=C/C(=O)Nc1cc2c(Nc3ccc(F)c(Cl)c3)ncnc2cc1O[C@H]1CCOC1 [afatinib]
pEC50 ([1]; Homo sapiens, added 25 min prior to carbachol, read-out: EC50 of amplification of carbachol-induced short-circuit current): ~5.30 | increase in carbachol response (basolateral K+ conductance) after pretreatment ([4]; 20 μM afatinib, 100 μM carbachol): ~2 fold | intestinal histology ([3]; rats, 60 mg/kg afatinib oral daily): relatively minor pathology up to day 4, but greater epithelial disruption after that | stool water content ([3]; rats, 60 mg/kg afatinib oral daily, days 4-5, baseline ~60%): > 80% | intestinal histology (H&E) by day 6 ([3]; rats, 60 mg/kg afatinib oral, day 6): scattered epithelial disruption is seen in jejunum (black arrowheads) and villus atrophy in ileum | intestinal histology (H&E) up to day 4 ([3]; rats, 60 mg/kg afatinib oral, up to day 4): minor injury up to day 4 with villus blunting in ileum

CC(=O)OCOC(=O)CN(CC(=O)OCOC(C)=O)c1ccccc1OCCOc1ccccc1N(CC(=O)OCOC(C)=O)CC(=O)OCOC(C)=O [BAPTA-AM]
effect on carbachol response [1, 8]: largely prevents the carbachol response

EGF: Epidermal growth factor (NSDSECPLSHDGYCLHDGVCMYIEALDKYACNCVVGYIGERCQYRDLKWWELR; UniProt P01133 971-1023, looked up)
effect on Cl- secretion in response to carbachol ([1]; 100 ng/ml EGF 25 min prior to 100 μM carbachol): greatly reduces

CCn1c(=O)[nH]c2ccccc21 [EBIO]
effect of pretreatment on carbachol and forskolin current responses ([1]; EBIO 500 μM and/or afatinib 20 μM, 25 min prior to 100 μM carbachol then 10 μM forskolin): amplifies the carbachol and forskolin current responses

CS(=O)(=O)CCNCc1ccc(-c2ccc3ncnc(Nc4ccc(OCc5cccc(F)c5)c(Cl)c4)c3c2)o1 [lapatinib]
short-circuit current, TKI alone [1]: do not increase short-circuit current

COc1cc2ncnc(Nc3ccc(F)c(Cl)c3)c2cc1OCCCN1CCOCC1 [gefitinib]
short-circuit current, TKI alone [1]: do not increase short-circuit current

O=C(O)c1ccc(/C=C2\SC(=S)N(c3cccc(C(F)(F)F)c3)C2=O)cc1 [CFTRinh-172]
effect on residual afatinib-induced carbachol response in BAPTA-treated cells [1, 8]: blocked

Cn1c(=O)c2c(-c3ccccc3)n3c(c2n(C)c1=O)[C@H](c1ccc(Br)o1)Oc1ccc(C(=O)O)cc1-3 [BPO-27]
effect on afatinib-amplified carbachol response (apical Cl- conductance) [6]: blocked | effect on afatinib augmentation of carbachol-induced current ([1]; 10 μM BPO-27, 20 μM afatinib, 100 μM carbachol): blocks the afatinib augmentation | effect on carbachol-induced current without afatinib ([1]; 10 μM BPO-27, 100 μM carbachol): little effect | effect on residual afatinib-induced carbachol response in BAPTA-treated cells [1, 8]: blocked | inhibition of the increase in stool water content ([3]; afatinib-treated rats, BPO-27 10 mg/kg ip twice daily from 1 day after first afatinib dose): ~50% | reduction of the increased stool water content with afatinib [3, 7]: significant reduction | inhibitor effect on stool water content by day 5 ([3]; afatinib-treated rats, BPO-27 10 mg/kg ip twice daily, day 5): reduced inhibitor effect
